Test systems include ACHN renal; BT-549 breast; HCT-15 colon; MDA-MB-231 breast; MDA-MB-435; NCI-H226 lung; RXF 393 renal; SF-268 CNS; SR leukemia; UO-31 renal.
Holding throughout (test): inhibition of tumour cell growth, NCI panel, 48 h

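Five concentrations, 48 hours, 96-well plates. The concentration for 50% growth inhibition is given as GI50. TGI marks complete inhibition of growth.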

For `O=C1/C=C/[C@@H](O)[C@@H]2C[C@@H](O)C[C@H]2/C=C/CCC[C@H](CCc2ccc(C(F)(F)F)cc2)O1`, the GI50 in the experiment with ACHN renal was 0.41 µM; in the experiment on BT-549 breast, 0.355 µM; with HCT-15 colon, 0.34 µM; with MDA-MB-231 breast, 0.185 µM; in the experiment with MDA-MB-435, 0.243 µM; in the experiment with NCI-H226 lung it was 0.0539 µM. Besides, the GI50 in the experiment with RXF 393 renal is 0.126 µM; in the experiment on SF-268 CNS it was 0.371 µM; in the experiment on SR leukemia, 0.311 µM; in the experiment on UO-31 renal, 0.259 µM. The TGI in the experiment on ACHN renal was more than 100 µM; with BT-549 breast, 10.7 µM; in the experiment on HCT-15 colon it was 2.36 µM; with MDA-MB-231 breast it was 0.368 µM; with MDA-MB-435, more than 72.1 µM; in the experiment on NCI-H226 lung, 0.513 µM. The TGI is 0.669 µM in the experiment on RXF 393 renal, more than 100 µM in the experiment on SF-268 CNS and 3.16 µM in the experiment on SR leukemia.

`CO/[N+]([O-])=C\C(=O)N/C=C/C(=O)O`: the TGI in the experiment on ACHN renal, in the experiment with BT-549 breast, in the experiment on HCT-15 colon, in the experiment on MDA-MB-231 breast, with MDA-MB-435 and in the experiment with NCI-H226 lung was more than 100 µM each time. Moreover, the TGI in the experiment with RXF 393 renal, in the experiment with SF-268 CNS, in the experiment with SR leukemia and in the experiment on UO-31 renal was more than 100 µM in each case.

On to `O=C(Nc1cccc(NC(=O)C(=O)C2CCC3=C(Sc4ccccc4N3)C2=O)n1)C(=O)C1CCC2=C(Sc3ccccc3N2)C1=O` (centres undefined), for which the TGI in the experiment with ACHN renal, in the experiment with BT-549 breast, with HCT-15 colon, with MDA-MB-231 breast, with MDA-MB-435 and with NCI-H226 lung was more than 100 µM in each case. Besides, the TGI in the experiment with RXF 393 renal, in the experiment with SF-268 CNS, with SR leukemia and in the experiment with UO-31 renal was more than 100 µM each time.

As for `Cc1ncc(C(=O)Nc2ccc(CN3CCN(C)CC3)c(C(F)(F)F)c2)cc1C#Cc1cnc(N)c2cnccc12`, the GI50 with ACHN renal is 0.133 µM; in the experiment on BT-549 breast, 0.841 µM; in the experiment on HCT-15 colon it was 0.389 µM; with MDA-MB-231 breast, 0.0289 µM; in the experiment on MDA-MB-435, 0.0261 µM; in the experiment on NCI-H226 lung, 0.175 µM. Also, the GI50 was 0.0706 µM with RXF 393 renal, 0.0791 µM in the experiment with SF-268 CNS, 0.0456 µM with SR leukemia and 0.289 µM with UO-31 renal. Also, the TGI in the experiment with ACHN renal stood at 1.03 µM; in the experiment on BT-549 breast, 10.7 µM; in the experiment with HCT-15 colon, 4.41 µM; in the experiment on MDA-MB-231 breast, 0.165 µM; in the experiment on MDA-MB-435, 4.11 µM; in the experiment on NCI-H226 lung it was 3.09 µM. The TGI with RXF 393 renal stood at 0.399 µM; with SF-268 CNS it was 11.7 µM; in the experiment on SR leukemia, 1.92 µM; in the experiment with UO-31 renal, 1.15 µM.

Consider `O=C(CCCCCCCn1cc(-c2cccnc2)nn1)Nc1ccccc1-c1ccccc1`, for which the GI50 in the experiment with ACHN renal is 9.39 µM; with BT-549 breast, 1.44 µM; with HCT-15 colon it was 0.231 µM; with MDA-MB-231 breast, 21.3 µM; in the experiment with MDA-MB-435, 0.305 µM; in the experiment with NCI-H226 lung, 14.5 µM. Moreover, the GI50 in the experiment on RXF 393 renal was more than 43.6 µM; in the experiment on SF-268 CNS it was 20.4 µM; with SR leukemia, 3.65 µM; with UO-31 renal, 5.24 µM. Further, the TGI in the experiment with ACHN renal is more than 100 µM; in the experiment on BT-549 breast, 25.6 µM; with HCT-15 colon, more than 100 µM; in the experiment on MDA-MB-231 breast, more than 100 µM; in the experiment on MDA-MB-435, 13.2 µM; in the experiment with NCI-H226 lung it was 50.2 µM. In addition, the TGI in the experiment on RXF 393 renal was more than 100 µM; with SF-268 CNS it was more than 100 µM; in the experiment with SR leukemia it was 64.8 µM; in the experiment with UO-31 renal it was 47 µM.

Take `CN(C)CCCNC(=O)c1ccc2oc3cc4ccccc4c(=O)n3c2c1`: the GI50 was 11.8 µM with ACHN renal; 24.2 µM with BT-549 breast; 23.8 µM in the experiment with HCT-15 colon; 16.5 µM in the experiment on MDA-MB-231 breast; 31.6 µM in the experiment on MDA-MB-435; 41.6 µM in the experiment with RXF 393 renal. Moreover, the GI50 in the experiment on SF-268 CNS was 15.4 µM; in the experiment on SR leukemia, 30.8 µM; in the experiment with UO-31 renal, 18.3 µM. Besides, the TGI in the experiment on ACHN renal, with BT-549 breast, in the experiment on HCT-15 colon, in the experiment on MDA-MB-231 breast, with MDA-MB-435 and with RXF 393 renal was more than 50 µM each time. Also, the TGI with SF-268 CNS, with SR leukemia and with UO-31 renal was more than 50 µM each time.

With `C[C@@H](N)C1CCC(C(=O)Nc2ccncc2)CC1` (some centres undefined), the GI50 was more than 100 µM with ACHN renal; more than 88.4 µM with BT-549 breast; more than 100 µM in the experiment with HCT-15 colon; more than 100 µM in the experiment on MDA-MB-231 breast; more than 100 µM in the experiment on MDA-MB-435; more than 100 µM in the experiment with NCI-H226 lung. Moreover, the GI50 with RXF 393 renal was more than 100 µM; in the experiment with SF-268 CNS it was more than 83 µM; in the experiment with SR leukemia, 36.4 µM; in the experiment on UO-31 renal, more than 34.1 µM. Besides, the TGI with ACHN renal, with BT-549 breast, in the experiment with HCT-15 colon, in the experiment on MDA-MB-231 breast, in the experiment with MDA-MB-435 and in the experiment with NCI-H226 lung was more than 100 µM throughout. Moreover, the TGI in the experiment with RXF 393 renal, in the experiment on SF-268 CNS, in the experiment on SR leukemia and in the experiment on UO-31 renal was more than 100 µM each time.

Take `COc1c2ccoc2cc2oc(=O)ccc12`: the TGI in the experiment with ACHN renal, in the experiment with BT-549 breast, in the experiment on HCT-15 colon, in the experiment with MDA-MB-231 breast, in the experiment with MDA-MB-435 and in the experiment with NCI-H226 lung was more than 100 µM each time. For the same compound, the TGI in the experiment on RXF 393 renal, in the experiment with SF-268 CNS and with SR leukemia was more than 100 µM each time.

As to `CCCCCCCCCCCCNC(=O)[C@H]1CSC(c2cc3ccccc3s2)N1` (some centres undefined), the GI50 with ACHN renal was 4.9 µM; in the experiment with BT-549 breast it was 1.01 µM; in the experiment on HCT-15 colon, 3.69 µM; in the experiment with MDA-MB-231 breast, 0.706 µM; in the experiment on MDA-MB-435, 0.605 µM; in the experiment on NCI-H226 lung it was 3 µM. Further, the GI50 with RXF 393 renal was 0.942 µM; in the experiment on SR leukemia, 0.695 µM; in the experiment with UO-31 renal, 4.16 µM. For the same compound, the TGI in the experiment with ACHN renal was 9.29 µM; in the experiment with BT-549 breast, 4.11 µM; in the experiment on HCT-15 colon, 8.17 µM; with MDA-MB-231 breast it was 1.46 µM; in the experiment with MDA-MB-435 it was 1.19 µM; in the experiment on NCI-H226 lung it was 7.88 µM. The TGI was determined as 2.21 µM in the experiment with RXF 393 renal, 1.85 µM with SR leukemia and 8.37 µM in the experiment on UO-31 renal.

The values are drawn from PubChem BioAssay (NCI).
